# Measurements from patent US20020035061A1, “COMPOSITIONS AND METHODS FOR TREATING INFECTIONS USING CATIONIC PEPTIDES ALONE OR IN COMBINATION WITH ANTIBIOTICS” (priority 1996, published 2002).
# Columns and labels:
# Liposome dye release = conditions: egg PC liposomes
# Procedure: In this example, a dye pair consisting of the fluorescent molecule 8-aminonapthalene-1,3,6-trisulfonic acid (ANTS) and its quencher molecule p-xylene-bis-pyridinium bromide (DPX) are used. The mixture of free dye molecules, dye free liposomes, and liposomes containing encapsulated ANTS-DPX are separated by size exclusion chromatography. In the assay, the test peptide is incubated with the ANTS-DPX containing liposomes and the fluorescence due to ANTS release to the outside of the liposome is measured over time.
# Using this assay, peptide activity, measured by dye release, is shown to be extremely sensitive to the composition of the liposomes at many liposome to peptide ratios (L/P) (FIG. 7). […] This […] selectivity may mimic that observed […] for bacterial cells in the presence of mammalian cells.
# ANTS/DPX can be replaced with fluorescein isothiocyanate-labeled dextran (FD-4), molecular weight 4,400, in the egg PC liposomes.
# S. pyogenes = test: Agarose dilution assay (MIC); assay type: cell-based; conditions: S. pyogenes strain SPY006
# S. aureus = test: microbe, parasite or virus in culture; assay type: cell-based
# tolerant organisms = test: Overcoming tolerance: MBC and MIC by agarose dilution, antibiotic alone and with peptide; assay type: cell-based; conditions: combination of Vancomycin and peptide, organisms of Table 18
sequence,measurement,setting,value
ILKKWPWWPWRRK [MBI 11CN],"FD-4 (MW 4,400) release",Liposome dye release,No increase in FD-4 fluorescence
ILRWPWWPWRRK [MBI 11B7CN],MIC,S. pyogenes,16 µg/mL
KKWWRRALQGLKTAGPAIQSVLNK [MBI 21A2],Ciprofloxacin MIC + Peptide,S. aureus; S. aureus SA25,1 µg/mL
same,Peptide MIC + Ciprofloxacin,S. aureus; S. aureus SA25,1 µg/mL
same,Peptide MIC Alone,"S. aureus; S. aureus SA25, Ciprofloxacin section",16 µg/mL
same,acquired resistance of S. aureus to piperacillin and ciprofloxacin,S. aureus; antibiotic agents combined with peptide,overcome
same,FIC,"S. aureus; peptide + Ciprofloxacin, S. aureus SA25",0.56
KWKSFIKKLTSAAKKVVTTAKPLISS [MBI 26],tolerance (MBC:MIC) to Vancomycin,tolerant organisms,overcomes the tolerance
